In ChEMBL document CHEMBL5442175, “EUbOPEN Chemogenomics Library - PDSP Secondary Binding” (2024):
Counter-ions that a name gives are not always drawn.

Experiments:
[1] = target: Sigma non-opioid intracellular receptor 1 (Homo sapiens, UniProt Q99720); assay: (§1) PDSP Secondary Binding target: SIGMAR1 - Compounds are tested at 10 uM concentration, plate are incubated at room temperature in the dark for 90 minutes. Reaction are stopped by vacuum filtration onto 0.3% polyethyleneimine soaked filter mats using Filtermate harvester. Scintillation cocktail is then melted onto microwave-dried filters on a hot plate and the radio activity is counted in Microbia counter.
[2] = target: Sigma intracellular receptor 2 (Homo sapiens, UniProt Q5BJF2); assay: as §1, with “TMEM97” for “SIGMAR1”
[3] = target: 5-hydroxytryptamine receptor 6 (Homo sapiens, UniProt P50406); assay: as §1, with “HTR6” for “SIGMAR1”
[4] = target: Sodium-dependent noradrenaline transporter (Homo sapiens, UniProt P23975); assay: as §1, with “SLC6A2” for “SIGMAR1”
[5] = target: 5-hydroxytryptamine receptor 5A (Homo sapiens, UniProt P47898); assay: as §1, with “HTR5A” for “SIGMAR1”
[6] = target: Sodium-dependent serotonin transporter (Homo sapiens, UniProt P31645); assay: as §1, with “SLC6A4” for “SIGMAR1”
D(4) dopamine receptor = target: T1, D(4) dopamine receptor (Homo sapiens, UniProt P21917); assay: as §1, with “DRD4” for “SIGMAR1”
T1 sequence (P21917 whole entry): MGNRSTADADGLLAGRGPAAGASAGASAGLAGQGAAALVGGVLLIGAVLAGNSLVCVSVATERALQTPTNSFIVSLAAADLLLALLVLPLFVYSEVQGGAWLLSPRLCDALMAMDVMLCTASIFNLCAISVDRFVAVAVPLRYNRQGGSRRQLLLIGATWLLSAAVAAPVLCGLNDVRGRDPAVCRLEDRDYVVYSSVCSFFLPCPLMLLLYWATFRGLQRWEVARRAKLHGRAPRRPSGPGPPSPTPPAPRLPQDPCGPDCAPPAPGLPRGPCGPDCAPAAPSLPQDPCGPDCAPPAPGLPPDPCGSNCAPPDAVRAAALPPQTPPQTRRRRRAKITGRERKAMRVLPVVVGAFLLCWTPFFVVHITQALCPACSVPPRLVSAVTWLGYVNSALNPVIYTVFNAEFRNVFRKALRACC

D(3) dopamine receptor = D(3) dopamine receptor (Homo sapiens, UniProt P35462); assay: as §1, with “DRD3” for “SIGMAR1”
[7] = target: 5-hydroxytryptamine receptor 1B (Homo sapiens, UniProt P28222); assay: as §1, with “HTR1B” for “SIGMAR1”
[8] = target: 5-hydroxytryptamine receptor 7 (Homo sapiens, UniProt P34969); assay: as §1, with “HTR7” for “SIGMAR1”
[9] = target: T2, Alpha-1B adrenergic receptor (Homo sapiens, UniProt P35368); assay: as §1, with “ADRA1B” for “SIGMAR1”
T2 sequence (P35368 whole entry): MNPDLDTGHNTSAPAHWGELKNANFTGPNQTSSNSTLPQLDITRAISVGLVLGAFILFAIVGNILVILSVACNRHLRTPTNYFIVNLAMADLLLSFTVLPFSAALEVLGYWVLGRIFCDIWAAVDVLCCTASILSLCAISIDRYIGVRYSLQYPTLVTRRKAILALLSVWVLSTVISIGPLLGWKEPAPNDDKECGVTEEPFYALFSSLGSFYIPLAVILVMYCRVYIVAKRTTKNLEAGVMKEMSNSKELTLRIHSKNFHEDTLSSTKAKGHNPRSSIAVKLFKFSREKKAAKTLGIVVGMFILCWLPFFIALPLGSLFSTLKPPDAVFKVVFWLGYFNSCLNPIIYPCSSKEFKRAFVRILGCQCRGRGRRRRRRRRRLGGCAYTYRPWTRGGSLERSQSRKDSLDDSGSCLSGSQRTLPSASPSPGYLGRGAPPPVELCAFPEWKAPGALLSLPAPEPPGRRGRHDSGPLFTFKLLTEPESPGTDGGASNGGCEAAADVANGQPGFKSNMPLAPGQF

[10] = target: T3, Alpha-1D adrenergic receptor (Homo sapiens, UniProt P25100); assay: as §1, with “ADRA1D” for “SIGMAR1”
T3 sequence (P25100 whole entry): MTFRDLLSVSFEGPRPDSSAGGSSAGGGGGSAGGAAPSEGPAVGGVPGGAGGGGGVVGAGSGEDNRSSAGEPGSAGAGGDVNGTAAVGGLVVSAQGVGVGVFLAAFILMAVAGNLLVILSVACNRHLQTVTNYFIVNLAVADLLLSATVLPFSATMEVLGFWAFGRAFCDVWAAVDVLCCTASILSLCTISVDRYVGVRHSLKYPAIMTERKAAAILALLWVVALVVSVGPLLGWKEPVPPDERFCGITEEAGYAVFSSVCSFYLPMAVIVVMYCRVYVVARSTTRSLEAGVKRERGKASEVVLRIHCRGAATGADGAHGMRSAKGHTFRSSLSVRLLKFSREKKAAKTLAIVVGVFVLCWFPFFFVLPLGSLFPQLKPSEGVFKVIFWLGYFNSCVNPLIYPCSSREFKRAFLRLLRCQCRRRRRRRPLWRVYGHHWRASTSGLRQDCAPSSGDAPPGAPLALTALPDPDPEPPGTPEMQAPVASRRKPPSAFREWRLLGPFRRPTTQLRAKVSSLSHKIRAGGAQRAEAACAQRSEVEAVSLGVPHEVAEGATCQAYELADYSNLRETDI

[11] = target: T4, 5-hydroxytryptamine receptor 2C (Homo sapiens, UniProt P28335); assay: as §1, with “HTR2C” for “SIGMAR1”
T4 sequence (P28335 whole entry): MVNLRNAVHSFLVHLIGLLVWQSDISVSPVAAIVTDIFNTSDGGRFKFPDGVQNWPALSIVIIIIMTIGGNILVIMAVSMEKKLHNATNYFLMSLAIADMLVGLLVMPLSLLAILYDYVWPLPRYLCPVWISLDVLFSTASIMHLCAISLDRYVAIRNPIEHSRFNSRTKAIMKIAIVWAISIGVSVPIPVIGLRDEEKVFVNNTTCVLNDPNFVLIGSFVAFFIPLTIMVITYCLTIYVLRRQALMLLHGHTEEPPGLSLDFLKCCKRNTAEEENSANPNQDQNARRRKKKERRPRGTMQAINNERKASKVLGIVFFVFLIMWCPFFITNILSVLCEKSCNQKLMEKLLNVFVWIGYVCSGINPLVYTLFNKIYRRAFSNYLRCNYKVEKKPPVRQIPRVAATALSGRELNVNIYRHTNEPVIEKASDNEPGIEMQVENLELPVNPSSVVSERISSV

Translocator protein = Translocator protein (Homo sapiens, UniProt P30536); assay: as §1, with “TSPO” for “SIGMAR1”
Mu-type opioid receptor = Mu-type opioid receptor (Homo sapiens, UniProt P35372); assay: as §1, with “OPRM1” for “SIGMAR1”
Histamine H1 receptor = Histamine H1 receptor (Homo sapiens, UniProt P35367); assay: as §1, with “HRH1” for “SIGMAR1”
[12] = target: Kappa-type opioid receptor (Homo sapiens, UniProt P41145); assay: as §1, with “OPRK1” for “SIGMAR1”
[13] = target: 5-hydroxytryptamine receptor 1D (Homo sapiens, UniProt P28221); assay: as §1, with “HTR1D” for “SIGMAR1”
[14] = target: T5, Alpha-2B adrenergic receptor (Homo sapiens, UniProt P18089); assay: as §1, with “ADRA2B” for “SIGMAR1”
T5 sequence (P18089 whole entry): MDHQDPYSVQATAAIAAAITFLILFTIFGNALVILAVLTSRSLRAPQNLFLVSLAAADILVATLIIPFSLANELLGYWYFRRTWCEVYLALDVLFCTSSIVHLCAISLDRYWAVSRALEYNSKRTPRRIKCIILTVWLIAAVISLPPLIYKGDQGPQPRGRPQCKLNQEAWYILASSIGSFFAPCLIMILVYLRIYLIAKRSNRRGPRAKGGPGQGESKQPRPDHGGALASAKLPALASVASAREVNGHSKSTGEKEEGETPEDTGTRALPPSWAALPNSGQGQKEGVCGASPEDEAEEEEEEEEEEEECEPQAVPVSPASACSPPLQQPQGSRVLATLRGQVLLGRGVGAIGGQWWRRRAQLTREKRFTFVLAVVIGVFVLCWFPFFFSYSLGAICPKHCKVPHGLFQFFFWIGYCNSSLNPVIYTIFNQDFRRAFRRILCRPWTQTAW

[15] = target: T6, Alpha-2A adrenergic receptor (Homo sapiens, UniProt P08913); assay: as §1, with “ADRA2A” for “SIGMAR1”
T6 sequence (P08913 whole entry): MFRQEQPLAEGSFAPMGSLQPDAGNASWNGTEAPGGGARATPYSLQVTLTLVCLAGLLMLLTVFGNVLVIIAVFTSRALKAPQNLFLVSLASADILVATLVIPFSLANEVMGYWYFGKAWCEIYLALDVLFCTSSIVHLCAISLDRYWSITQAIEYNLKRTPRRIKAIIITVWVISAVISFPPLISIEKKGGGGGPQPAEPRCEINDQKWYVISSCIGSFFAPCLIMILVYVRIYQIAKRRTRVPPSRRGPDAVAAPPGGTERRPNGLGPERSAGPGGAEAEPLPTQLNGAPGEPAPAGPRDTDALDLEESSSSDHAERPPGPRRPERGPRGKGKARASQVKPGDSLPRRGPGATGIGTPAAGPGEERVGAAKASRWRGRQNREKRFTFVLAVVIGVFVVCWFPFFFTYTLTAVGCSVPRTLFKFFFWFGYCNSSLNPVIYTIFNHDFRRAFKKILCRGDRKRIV

Sigma intracellular receptor 2, sequence (Q5BJF2 whole entry): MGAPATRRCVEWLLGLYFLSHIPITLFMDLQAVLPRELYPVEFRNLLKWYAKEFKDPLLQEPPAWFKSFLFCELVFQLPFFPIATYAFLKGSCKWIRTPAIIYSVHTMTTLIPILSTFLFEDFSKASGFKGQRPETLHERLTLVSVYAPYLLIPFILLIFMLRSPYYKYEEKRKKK
Sodium-dependent noradrenaline transporter, sequence (P23975 whole entry): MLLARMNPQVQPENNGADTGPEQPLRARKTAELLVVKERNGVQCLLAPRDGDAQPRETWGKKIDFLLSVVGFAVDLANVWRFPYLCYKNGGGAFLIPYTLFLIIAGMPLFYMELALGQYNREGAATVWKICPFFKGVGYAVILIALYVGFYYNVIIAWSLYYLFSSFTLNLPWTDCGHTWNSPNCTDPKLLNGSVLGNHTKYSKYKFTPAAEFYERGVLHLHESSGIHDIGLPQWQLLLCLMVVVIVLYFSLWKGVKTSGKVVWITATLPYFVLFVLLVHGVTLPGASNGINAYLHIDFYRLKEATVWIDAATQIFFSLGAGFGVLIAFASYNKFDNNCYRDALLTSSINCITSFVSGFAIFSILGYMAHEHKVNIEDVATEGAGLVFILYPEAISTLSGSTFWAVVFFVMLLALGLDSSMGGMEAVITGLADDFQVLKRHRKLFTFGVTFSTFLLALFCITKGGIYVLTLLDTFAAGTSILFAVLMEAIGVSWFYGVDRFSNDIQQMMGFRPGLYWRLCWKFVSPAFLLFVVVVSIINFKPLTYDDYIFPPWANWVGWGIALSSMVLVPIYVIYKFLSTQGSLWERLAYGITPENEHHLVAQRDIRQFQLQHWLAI
Sodium-dependent serotonin transporter, sequence (P31645 whole entry): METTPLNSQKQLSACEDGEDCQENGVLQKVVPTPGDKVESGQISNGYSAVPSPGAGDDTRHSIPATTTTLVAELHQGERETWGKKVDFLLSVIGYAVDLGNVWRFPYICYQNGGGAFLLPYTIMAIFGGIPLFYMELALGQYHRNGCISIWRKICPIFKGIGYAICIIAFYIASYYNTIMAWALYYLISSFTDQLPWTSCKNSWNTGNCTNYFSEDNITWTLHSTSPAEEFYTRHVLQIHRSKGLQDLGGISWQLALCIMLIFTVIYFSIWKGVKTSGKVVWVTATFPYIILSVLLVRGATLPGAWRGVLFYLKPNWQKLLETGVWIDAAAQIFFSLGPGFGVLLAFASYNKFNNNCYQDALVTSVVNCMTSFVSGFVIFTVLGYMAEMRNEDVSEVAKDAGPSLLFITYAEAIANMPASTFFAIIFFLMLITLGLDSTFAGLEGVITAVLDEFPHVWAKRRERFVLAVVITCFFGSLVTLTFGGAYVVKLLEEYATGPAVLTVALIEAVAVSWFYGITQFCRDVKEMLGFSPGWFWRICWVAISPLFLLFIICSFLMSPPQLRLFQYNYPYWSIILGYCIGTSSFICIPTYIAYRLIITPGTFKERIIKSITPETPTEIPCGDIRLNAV
D(3) dopamine receptor, sequence (P35462 whole entry): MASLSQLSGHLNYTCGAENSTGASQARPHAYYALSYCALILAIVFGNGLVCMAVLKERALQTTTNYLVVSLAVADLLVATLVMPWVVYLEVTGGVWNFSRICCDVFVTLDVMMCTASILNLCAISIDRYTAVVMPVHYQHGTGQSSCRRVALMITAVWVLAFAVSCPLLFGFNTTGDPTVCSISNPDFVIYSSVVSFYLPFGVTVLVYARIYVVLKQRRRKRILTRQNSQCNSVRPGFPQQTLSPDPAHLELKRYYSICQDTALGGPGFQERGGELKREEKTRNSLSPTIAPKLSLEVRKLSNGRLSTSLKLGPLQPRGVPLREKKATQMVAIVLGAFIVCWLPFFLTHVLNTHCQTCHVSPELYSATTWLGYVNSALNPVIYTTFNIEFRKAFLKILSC
Sigma non-opioid intracellular receptor 1, sequence (Q99720 whole entry): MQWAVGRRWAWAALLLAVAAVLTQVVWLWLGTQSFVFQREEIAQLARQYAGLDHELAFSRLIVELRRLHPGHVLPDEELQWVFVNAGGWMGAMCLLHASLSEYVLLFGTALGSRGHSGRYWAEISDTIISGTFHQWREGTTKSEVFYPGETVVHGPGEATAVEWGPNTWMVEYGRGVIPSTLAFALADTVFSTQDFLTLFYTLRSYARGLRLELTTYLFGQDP
5-hydroxytryptamine receptor 6, sequence (P50406 whole entry): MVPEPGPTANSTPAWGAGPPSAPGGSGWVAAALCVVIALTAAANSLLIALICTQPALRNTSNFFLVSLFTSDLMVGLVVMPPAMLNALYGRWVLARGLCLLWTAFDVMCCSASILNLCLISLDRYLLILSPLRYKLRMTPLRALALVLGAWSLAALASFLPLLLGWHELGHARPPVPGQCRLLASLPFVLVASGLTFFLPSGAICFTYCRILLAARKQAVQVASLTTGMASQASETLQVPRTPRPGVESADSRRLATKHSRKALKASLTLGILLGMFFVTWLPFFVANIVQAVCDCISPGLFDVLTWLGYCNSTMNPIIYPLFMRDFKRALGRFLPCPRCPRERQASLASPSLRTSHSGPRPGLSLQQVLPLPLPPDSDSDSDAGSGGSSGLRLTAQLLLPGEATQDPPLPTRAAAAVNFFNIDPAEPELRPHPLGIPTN
5-hydroxytryptamine receptor 1B, sequence (P28222 whole entry): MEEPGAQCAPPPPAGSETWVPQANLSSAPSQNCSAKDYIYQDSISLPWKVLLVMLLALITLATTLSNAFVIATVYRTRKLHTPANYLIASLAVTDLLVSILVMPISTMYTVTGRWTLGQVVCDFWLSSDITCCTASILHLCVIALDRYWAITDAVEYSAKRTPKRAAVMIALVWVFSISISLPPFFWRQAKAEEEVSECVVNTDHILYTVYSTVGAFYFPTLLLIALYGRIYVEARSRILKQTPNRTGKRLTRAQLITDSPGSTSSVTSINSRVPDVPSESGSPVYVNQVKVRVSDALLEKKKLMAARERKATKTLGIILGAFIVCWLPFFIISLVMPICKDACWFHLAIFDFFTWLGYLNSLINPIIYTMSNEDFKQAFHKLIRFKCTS
5-hydroxytryptamine receptor 7, sequence (P34969 whole entry): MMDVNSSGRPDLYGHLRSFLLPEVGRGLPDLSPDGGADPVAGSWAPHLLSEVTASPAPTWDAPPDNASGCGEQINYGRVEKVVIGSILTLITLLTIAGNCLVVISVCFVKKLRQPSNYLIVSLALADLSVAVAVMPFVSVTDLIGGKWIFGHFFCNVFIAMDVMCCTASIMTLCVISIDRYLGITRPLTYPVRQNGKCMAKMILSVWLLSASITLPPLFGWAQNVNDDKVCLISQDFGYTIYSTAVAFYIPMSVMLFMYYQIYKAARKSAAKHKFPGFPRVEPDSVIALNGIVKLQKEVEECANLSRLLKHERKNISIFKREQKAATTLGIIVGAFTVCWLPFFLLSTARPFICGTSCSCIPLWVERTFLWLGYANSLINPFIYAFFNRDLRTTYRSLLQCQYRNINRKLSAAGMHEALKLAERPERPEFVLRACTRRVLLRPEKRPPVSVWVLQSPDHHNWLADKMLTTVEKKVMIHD
Translocator protein, sequence (P30536 whole entry): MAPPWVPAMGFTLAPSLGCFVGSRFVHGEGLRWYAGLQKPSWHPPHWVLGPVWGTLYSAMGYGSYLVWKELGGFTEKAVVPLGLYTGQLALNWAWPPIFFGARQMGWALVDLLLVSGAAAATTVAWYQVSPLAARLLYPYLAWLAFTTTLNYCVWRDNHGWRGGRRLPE
5-hydroxytryptamine receptor 1D, sequence (P28221 whole entry): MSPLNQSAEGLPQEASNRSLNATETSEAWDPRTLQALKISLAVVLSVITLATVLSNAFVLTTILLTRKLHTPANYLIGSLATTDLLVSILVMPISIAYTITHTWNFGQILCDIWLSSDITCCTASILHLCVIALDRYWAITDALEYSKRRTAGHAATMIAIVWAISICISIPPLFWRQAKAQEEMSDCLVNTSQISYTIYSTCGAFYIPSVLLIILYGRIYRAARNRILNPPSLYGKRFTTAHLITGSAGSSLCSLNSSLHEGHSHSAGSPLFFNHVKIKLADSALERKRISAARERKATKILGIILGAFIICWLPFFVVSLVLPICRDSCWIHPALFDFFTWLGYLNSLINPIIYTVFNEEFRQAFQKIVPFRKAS
5-hydroxytryptamine receptor 5A, sequence (P47898 whole entry): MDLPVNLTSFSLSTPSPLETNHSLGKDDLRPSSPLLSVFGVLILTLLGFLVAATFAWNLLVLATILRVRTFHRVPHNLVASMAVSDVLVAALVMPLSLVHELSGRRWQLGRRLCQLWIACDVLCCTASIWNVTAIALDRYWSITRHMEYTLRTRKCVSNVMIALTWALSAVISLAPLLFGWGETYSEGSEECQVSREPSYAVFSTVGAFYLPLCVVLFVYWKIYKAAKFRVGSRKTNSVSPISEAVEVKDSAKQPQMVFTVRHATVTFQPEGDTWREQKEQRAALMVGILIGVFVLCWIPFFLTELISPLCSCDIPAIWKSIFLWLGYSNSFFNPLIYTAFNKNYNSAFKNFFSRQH
Kappa-type opioid receptor, sequence (P41145 whole entry): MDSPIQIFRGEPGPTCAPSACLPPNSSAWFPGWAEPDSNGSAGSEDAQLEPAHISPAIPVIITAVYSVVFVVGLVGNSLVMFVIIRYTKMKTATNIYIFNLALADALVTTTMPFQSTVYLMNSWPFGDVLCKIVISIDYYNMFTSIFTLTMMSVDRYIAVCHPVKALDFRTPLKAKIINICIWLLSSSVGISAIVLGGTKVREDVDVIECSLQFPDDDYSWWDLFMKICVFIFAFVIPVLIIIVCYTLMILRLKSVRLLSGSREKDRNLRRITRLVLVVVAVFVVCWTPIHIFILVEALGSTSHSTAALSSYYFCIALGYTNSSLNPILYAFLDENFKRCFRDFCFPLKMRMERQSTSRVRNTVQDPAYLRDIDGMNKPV

SMILES | Ki [4] | Ki [6] | Ki (D(3) dopamine receptor) | Ki [2] | Ki [10] | further results
CC(C)NCC(O)COc1cccc2ccccc12 (stereo unspecified) [PROPRANOLOL HYDROCHLORIDE] | – | – | – | 0.353 µM | – | Ki [1]: 0.0954 µM; Ki [3]: 0.542 µM
O=C(O)c1n[nH]c2c1C[C@H]1C[C@@H]21 | > 10 µM | 2.43 µM | – | – | – | Ki [5]: > 10 µM
CCCCCNC(=O)NS(=O)(=O)c1cc([N+](=O)[O-])ccc1NC1CCCCC1 | 6.91 µM | 7.77 µM | 2.58 µM | – | – | –
N[C@H](C(=O)O)c1ccc(C(=O)O)c(C(=O)O)c1 | 7.55 µM | 7.61 µM | 2.04 µM | – | – | –
Clc1cccc(Cl)c1N=C1NCCN1 [CLONIDINE HYDROCHLORIDE] | – | – | – | 2.78 µM | 1.98 µM | Ki [8]: 0.879 µM; Ki [9]: 2.63 µM; Ki [11]: 6.95 µM
Cc1ccccc1C(=O)Nc1ccc(C(=O)N2CCCC(O)c3cc(Cl)ccc32)c(C)c1 (stereo unspecified) [TOLVAPTAN] | – | – | – | 1.03 µM | – | Ki (Mu-type opioid receptor): 0.41 µM; Ki (Histamine H1 receptor): 6.69 µM; Ki [11]: 4.86 µM
Brc1c(NC2=NCCN2)ccc2nccnc12 | – | – | – | 1.53 µM | 2.11 µM | Ki [8]: 1.11 µM; Ki [9]: 4.2 µM
CCCn1c(=O)c2[nH]c(-c3cnn(Cc4cccc(C(F)(F)F)c4)c3)nc2n(CC)c1=O [GS 6201] | – | – | – | – | > 10 µM | –
N#Cc1c(N)nc(SCC(N)=O)c(C#N)c1-c1ccc(OCC2CC2)cc1 | – | – | – | – | – | Ki [7]: 6.67 µM; Ki [1]: 1 µM; Ki [12]: 0.407 µM
CCCCCCCCCCCCCCCCOC[C@H](COP(=O)([O-])OCC[N+](C)(C)C)OC(C)=O | – | – | 1.76 µM | 1.82 µM | 2.05 µM | Ki [13]: 8.52 µM; Ki [9]: 4.49 µM; Ki [14]: > 10 µM; Ki [11]: 3.08 µM; Ki [15]: > 10 µM

Continued, in another order:

Ki [4] | Ki [6] | Ki (D(3) dopamine receptor) | SMILES | Ki [2] | Ki [10] | further results
– | – | 0.559 µM | COc1ccc(S(=O)(=O)c2cc(OC)ccc2S(=O)(=O)c2ccc([C@H](C)NS(C)(=O)=O)cc2)cc1 | – | – | Ki (D(4) dopamine receptor): 1.16 µM; Ki [3]: 0.28 µM
> 10 µM | – | – | C[C@H](CO)Nc1nc(SCc2cccc(Cl)c2F)nc2[nH]c(=O)sc12 | – | – | Ki [7]: 8.41 µM
4.83 µM | > 10 µM | 1 µM | CCCNS(=O)(=O)Nc1ncnc(OCCOc2ncc(Br)cn2)c1-c1ccc(Br)cc1 | – | – | Ki (Translocator protein): 2.12 µM
